Common to all, as to experiment: relative viability (nuclei count vs DMSO), 5 days (fraction); higher = more cells survive
Compound in assay [1]: C#Cc1cccc(Nc2ncnc3cc(OC)c(OCCCCCCC(=O)NO)cc23)c1 [CUDC-101] + CC1(C)CCC(c2ccc(Cl)cc2)=C(CN2CCN(c3ccc(C(=O)NS(=O)(=O)c4ccc(N[C@H](CCN5CCOCC5)CSc5ccccc5)c(S(=O)(=O)C(F)(F)F)c4)cc3)CC2)C1 [Navitoclax] (partner 0.5 µM)
The method, boiled down:
(§1)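 After 5 days of treatment, lung cancer cells in 1536-well plates were fixed and stained in a single step (final 0.05% Triton X-100, 1% formaldehyde, 1 ug/ml Hoechst) and their nuclei counted on 4× images. Treatment had been applied by pin tool the day after seeding as one drug alone or as a fixed anchor-drug dose with five library-drug doses (not always all listed) in √10 steps. Relative viability is the nuclei count of treated wells divided by that of vehicle wells, and values are medians of duplicate plates.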

Compound in assay [2]: C1=CC=C2C(=C1)N=C(S2)C(C#N)C3=NC(=NC=C3)NCCC4=CN=CC=C4 + CC(=O)c1c(C)c2cnc(Nc3ccc(N4CCNCC4)cn3)nc2n(C2CCCC2)c1=O [Palbociclib] (partner 0.5 µM)
The procedure, abridged: as §1

Compound in assay [3]: C1=CC=C2C(=C1)N=C(S2)C(C#N)C3=NC(=NC=C3)NCCC4=CN=CC=C4 + C[C@]1(O)C[C@@H](c2nc(-c3ccc4ccc(-c5ccccc5)nc4c3)c3c(N)nccn32)C1 [Linsitinib] (partner 1 µM)
The method, boiled down:
as §1

Compound in assay [4]: COc1cc(N2CCC(N3CCN(C)CC3)CC2)ccc1Nc1ncc(Cl)c(Nc2ccccc2S(=O)(=O)C(C)C)n1 [NVP-TAE684] + Cc1nc(Nc2ncc(C(=O)Nc3c(C)cccc3Cl)s2)cc(N2CCN(CCO)CC2)n1 [Dasatinib] (partner 0.075 µM)
The procedure, abridged: as §1

201T: the relative viability in assay [1] (first compound 0.01 µM) was determined as 1.18; in assay [1] (first compound 0.03162 µM) it was 1.17; in assay [1] (first compound 0.1 µM), 1.16; in assay [1] (first compound 0.3162 µM), 1.2; in assay [1] (first compound 1 µM), 1.21; in assay [2] (first compound 0.005 µM), 0.292. For the same cell line, the relative viability in assay [2] (first compound 0.01581 µM) came to 0.354; in assay [2] (first compound 0.05 µM) it was 0.354; in assay [2] (first compound 0.1581 µM) it was 0.383; in assay [2] (first compound 0.5 µM) it was 0.325; in assay [3] (first compound 0.005 µM), 1.07; in assay [3] (first compound 0.01581 µM), 1.01. Also, the relative viability in assay [3] (first compound 0.05 µM) was 1.06; in assay [3] (first compound 0.1581 µM), 1.06; in assay [3] (first compound 0.5 µM) it was 0.974; in assay [4] (first compound 0.2 µM), 0.703; in assay [4] (first compound 0.6325 µM) it was 0.46; in assay [4] (first compound 2 µM) it was 0.314.

Turning to A549, the relative viability in assay [1] (first compound 0.01 µM) was found to be 1.34; in assay [1] (first compound 0.03162 µM), 1.12; in assay [1] (first compound 0.1 µM), 1.19; in assay [1] (first compound 0.3162 µM) it was 1.2; in assay [1] (first compound 1 µM), 1.15; in assay [3] (first compound 0.005 µM), 0.476. Further, the relative viability came out at 0.684 in assay [3] (first compound 0.01581 µM), 0.549 in assay [3] (first compound 0.05 µM), 0.661 in assay [3] (first compound 0.1581 µM) and 0.595 in assay [3] (first compound 0.5 µM).

In the case of A-427, the relative viability in assay [1] (first compound 0.01 µM) was determined as 0.978; in assay [1] (first compound 0.03162 µM), 0.919; in assay [1] (first compound 0.1 µM), 0.939; in assay [1] (first compound 0.3162 µM) it was 0.926; in assay [1] (first compound 1 µM), 0.924; in assay [2] (first compound 0.005 µM), 0.542. The relative viability in assay [2] (first compound 0.01581 µM) worked out at 0.5; in assay [2] (first compound 0.05 µM), 0.519; in assay [2] (first compound 0.1581 µM) it was 0.525; in assay [2] (first compound 0.5 µM), 0.56; in assay [3] (first compound 0.005 µM), 1.05; in assay [3] (first compound 0.01581 µM) it was 1.12. Besides, the relative viability stood at 1.11 in assay [3] (first compound 0.05 µM); 1.17 in assay [3] (first compound 0.1581 µM); 1.13 in assay [3] (first compound 0.5 µM); 0.789 in assay [4] (first compound 0.2 µM); 0.703 in assay [4] (first compound 0.6325 µM); 0.554 in assay [4] (first compound 2 µM).

Take ABC-1: the relative viability in assay [2] (first compound 0.005 µM) is 0.525; in assay [2] (first compound 0.05 µM) it was 0.597; in assay [2] (first compound 0.1581 µM), 0.554; in assay [2] (first compound 0.5 µM) it was 0.451; in assay [3] (first compound 0.005 µM), 0.979; in assay [3] (first compound 0.01581 µM) it was 0.887. For the same cell line, the relative viability in assay [3] (first compound 0.05 µM) came out at 1.01; in assay [3] (first compound 0.1581 µM) it was 0.962; in assay [3] (first compound 0.5 µM), 0.601; in assay [4] (first compound 0.2 µM), 0.584; in assay [4] (first compound 0.6325 µM), 0.423; in assay [4] (first compound 2 µM), 0.237.

Turning to BEN, the relative viability in assay [1] (first compound 0.01 µM) came out at 0.0901; in assay [1] (first compound 0.03162 µM), 0.0957; in assay [1] (first compound 0.1 µM) it was 0.427; in assay [1] (first compound 0.3162 µM), 0.137; in assay [1] (first compound 1 µM), 0.0346; in assay [2] (first compound 0.005 µM), 0.417. Further, the relative viability in assay [2] (first compound 0.01581 µM) stood at 0.472; in assay [2] (first compound 0.05 µM), 0.473; in assay [2] (first compound 0.1581 µM), 0.473; in assay [2] (first compound 0.5 µM), 0.444; in assay [3] (first compound 0.005 µM), 0.6; in assay [3] (first compound 0.01581 µM) it was 0.953. Also, the relative viability is 0.885 in assay [3] (first compound 0.05 µM); 0.973 in assay [3] (first compound 0.1581 µM); 0.74 in assay [3] (first compound 0.5 µM); 0.37 in assay [4] (first compound 0.2 µM); 0.287 in assay [4] (first compound 0.6325 µM); 0.28 in assay [4] (first compound 2 µM).

For Calu-6, the relative viability in assay [1] (first compound 0.01 µM) was 0.93; in assay [1] (first compound 0.03162 µM), 1.1; in assay [1] (first compound 0.1 µM), 0.848; in assay [1] (first compound 0.3162 µM), 0.82; in assay [1] (first compound 1 µM) it was 0.624; in assay [3] (first compound 0.005 µM), 0.884. Further, the relative viability in assay [3] (first compound 0.01581 µM) was found to be 0.982; in assay [3] (first compound 0.05 µM) it was 0.89; in assay [3] (first compound 0.1581 µM), 1.07; in assay [3] (first compound 0.5 µM), 0.914.

On to ChaGo-K-1, for which the relative viability in assay [1] (first compound 0.01 µM) was found to be 1.34; in assay [1] (first compound 0.03162 µM), 1.48; in assay [1] (first compound 0.1 µM), 1.04; in assay [1] (first compound 0.3162 µM), 1.06; in assay [1] (first compound 1 µM), 0.92; in assay [2] (first compound 0.005 µM), 0.731. In addition, the relative viability in assay [2] (first compound 0.01581 µM) stood at 0.979; in assay [2] (first compound 0.05 µM), 0.903; in assay [2] (first compound 0.1581 µM), 1.01; in assay [2] (first compound 0.5 µM), 0.911; in assay [4] (first compound 0.2 µM), 0.715; in assay [4] (first compound 0.6325 µM), 0.558. Further, the relative viability in assay [4] (first compound 2 µM) was 0.413.

On to EBC-1, for which the relative viability in assay [1] (first compound 0.01 µM) was determined as 0.41; in assay [1] (first compound 0.03162 µM), 0.377; in assay [1] (first compound 0.1 µM), 0.365; in assay [1] (first compound 0.3162 µM), 0.184; in assay [1] (first compound 1 µM) it was 0.144; in assay [3] (first compound 0.005 µM) it was 1.04. For the same cell line, the relative viability amounted to 0.871 in assay [3] (first compound 0.01581 µM), 0.502 in assay [3] (first compound 0.05 µM), 1.01 in assay [3] (first compound 0.1581 µM) and 0.812 in assay [3] (first compound 0.5 µM).

As to HCC-44, the relative viability was found to be 0.836 in assay [1] (first compound 0.01 µM); 0.933 in assay [1] (first compound 0.03162 µM); 0.877 in assay [1] (first compound 0.1 µM); 1.06 in assay [1] (first compound 0.3162 µM); 0.827 in assay [1] (first compound 1 µM); 0.957 in assay [2] (first compound 0.005 µM). In addition, the relative viability in assay [2] (first compound 0.01581 µM) was 0.958; in assay [2] (first compound 0.05 µM), 0.964; in assay [2] (first compound 0.1581 µM) it was 0.967; in assay [2] (first compound 0.5 µM) it was 0.835; in assay [3] (first compound 0.005 µM) it was 0.655; in assay [3] (first compound 0.01581 µM), 0.724. Also, the relative viability in assay [3] (first compound 0.05 µM) was determined as 0.696; in assay [3] (first compound 0.1581 µM), 0.666; in assay [3] (first compound 0.5 µM), 0.65.

For IA-LM, the relative viability was found to be 0.685 in assay [1] (first compound 0.01 µM); 0.806 in assay [1] (first compound 0.03162 µM); 0.698 in assay [1] (first compound 0.1 µM); 0.832 in assay [1] (first compound 0.3162 µM); 0.281 in assay [1] (first compound 1 µM); 0.544 in assay [3] (first compound 0.01581 µM). For the same cell line, the relative viability in assay [3] (first compound 0.05 µM) stood at 0.32; in assay [3] (first compound 0.1581 µM), 0.607; in assay [3] (first compound 0.5 µM) it was 0.637.

Turning to LCLC-103H, the relative viability in assay [2] (first compound 0.005 µM) is 0.491; in assay [2] (first compound 0.01581 µM), 0.468; in assay [2] (first compound 0.05 µM) it was 0.514; in assay [2] (first compound 0.1581 µM), 0.522; in assay [2] (first compound 0.5 µM), 0.485; in assay [3] (first compound 0.005 µM), 1.03. Also, the relative viability in assay [3] (first compound 0.01581 µM) came out at 1.08; in assay [3] (first compound 0.05 µM), 1.14; in assay [3] (first compound 0.1581 µM), 1.09; in assay [3] (first compound 0.5 µM), 1.06; in assay [4] (first compound 0.2 µM) it was 0.568; in assay [4] (first compound 0.6325 µM), 0.464. The relative viability in assay [4] (first compound 2 µM) worked out at 0.168.

Source of the values: the supplement of paper PMC10307832.
